From patent publication US20070082945A1, “Discodermolide compositions” (priority 2003, published 2007)

Columns and labels:
Format in all cases: physicochemical
[1] = Stability of infusion concentrates diluted 1:5 with 20/80 propylene glycol/0.9% sodium chloride, ambient conditions
Protocol: In this example, stability of discodermolide infusion concentrates diluted 1:5 with 20/80 propylene glycol/0.9% sodium chloride solution under ambient conditions is measured. Table 4 describes the amount of degradation product formed over a period of up to 24 hours. The stability is analyzed by determining formation of degradation products in each of the infusion solutions as a function of time and temperature. Each sample is analyzed by HPLC with a UV detector. The solution for infusion was prepared by diluting discodermolide concentrates, 0.6 mg/mL, 2.0 mg/mL and 3.0 mg/mL, with 20/80 propylene glycol/0.9% sodium chloride solution in a 1:5 ratio. The discodermolide concentrate solutions of 0.6 mg/mL, 2.0 mg/mL and 3.0 mg/mL yielded discodermolide solutions for infusions 0.12 mg/mL, 0.4 mg/mL and 0.6 mg/mL, respectively.

[2] = Stability of propylene glycol infusion concentrates (HPLC, UV detector), Example 12
Protocol: The stability of propylene glycol infusion concentrates comprising discodermolide at different concentrations and various temperatures is determined. The stability is analyzed by determining formation of degradation products in each of the infusion concentrates as a function of time and temperature. Each sample is analyzed by HPLC with a UV detector. […] Under accelerated conditions, the levels of impurities increased at both 25° C./60% relative humidity (RH) and 45° C./60% RH.

[3] = Solubility and stability in aqueous media
[4] = Stability of 16 mg/mL infusion concentrate in propylene glycol (HPLC, UV detector), Example 13; details: for Assay / Total Impurities: 16 mg/mL infusion concentrate in PG
Protocol: The stability of an infusion concentrate of 16 mg/mL in propylene glycol at different temperatures is determined. Table 3 describes the amount of degradation product formed over a period of up to 12 weeks. The stability is analyzed by determining formation of degradation products in each of the infusion concentrates as a function of time and temperature. Each sample is analyzed by HPLC with a UV detector.

[5] = 0.12 mg/mL solution for infusion, 0 hours
[6] = 0.12 mg/mL solution for infusion, 2 hours
[7] = 0.12 mg/mL solution for infusion, 4 hours
[8] = 0.12 mg/mL solution for infusion, 8 hours
[9] = 0.12 mg/mL solution for infusion, 24 hours
[10] = 0.4 mg/mL solution for infusion, 0 hours
[11] = 0.4 mg/mL solution for infusion, 2 hours
[12] = 0.4 mg/mL solution for infusion, 4 hours
[13] = 0.4 mg/mL solution for infusion, 8 hours
[14] = 0.4 mg/mL solution for infusion, 24 hours
[15] = 0.6 mg/mL solution for infusion, 0 hours
[16] = 0.6 mg/mL solution for infusion, 2 hours
[17] = 0.6 mg/mL solution for infusion, 4 hours
[18] = 0.6 mg/mL solution for infusion, 8 hours
[19] = 0.6 mg/mL solution for infusion, 24 hours
[20] = 0.6 mg/mL infusion concentrate in PG, 0-time
[21] = 0.6 mg/mL infusion concentrate in PG, 5° C., 0.5 month
[22] = 0.6 mg/mL infusion concentrate in PG, 5° C., 1 month
[23] = 0.6 mg/mL infusion concentrate in PG, 5° C., 2 months
[24] = 0.6 mg/mL infusion concentrate in PG, 5° C., 3 months
[25] = 0.6 mg/mL infusion concentrate in PG, 25° C./60% RH, 0.5 month
[26] = 0.6 mg/mL infusion concentrate in PG, 25° C./60% RH, 1 month
[27] = 0.6 mg/mL infusion concentrate in PG, 25° C./60% RH, 2 months
[28] = 0.6 mg/mL infusion concentrate in PG, 25° C./60% RH, 3 months
[29] = 0.6 mg/mL infusion concentrate in PG, 45° C./60% RH, 0.5 month
[30] = 0.6 mg/mL infusion concentrate in PG, 45° C./60% RH, 1 month
[31] = 2.0 mg/mL infusion concentrate in PG, 0-time
[32] = 2.0 mg/mL infusion concentrate in PG, 5° C., 0.5 month
[33] = 2.0 mg/mL infusion concentrate in PG, 5° C., 1 month
[34] = 2.0 mg/mL infusion concentrate in PG, 5° C., 2 months
[35] = 2.0 mg/mL infusion concentrate in PG, 5° C., 3 months
[36] = 2.0 mg/mL infusion concentrate in PG, 25° C./60% RH, 0.5 month
[37] = 2.0 mg/mL infusion concentrate in PG, 25° C./60% RH, 1 month
[38] = 2.0 mg/mL infusion concentrate in PG, 25° C./60% RH, 2 months
[39] = 2.0 mg/mL infusion concentrate in PG, 25° C./60% RH, 3 months
[40] = 2.0 mg/mL infusion concentrate in PG, 45° C./60% RH, 0.5 month
[41] = 2.0 mg/mL infusion concentrate in PG, 45° C./60% RH, 1 month
[42] = 3.0 mg/mL infusion concentrate in PG, 0-time
[43] = 3.0 mg/mL infusion concentrate in PG, 5° C., 0.5 month
[44] = 3.0 mg/mL infusion concentrate in PG, 5° C., 1 month
[45] = 3.0 mg/mL infusion concentrate in PG, 5° C., 2 months
[46] = 3.0 mg/mL infusion concentrate in PG, 5° C., 3 months
[47] = 3.0 mg/mL infusion concentrate in PG, 25° C./60% RH, 0.5 month
[48] = 3.0 mg/mL infusion concentrate in PG, 25° C./60% RH, 1 month
[49] = 3.0 mg/mL infusion concentrate in PG, 25° C./60% RH, 2 months
[50] = 3.0 mg/mL infusion concentrate in PG, 25° C./60% RH, 3 months
[51] = 3.0 mg/mL infusion concentrate in PG, 45° C./60% RH, 0.5 month
[52] = 3.0 mg/mL infusion concentrate in PG, 45° C./60% RH, 1 month
[53] = normal saline (0.9% sodium chloride)

Compound: C=C/C=C\C(C)[C@H](OC(N)=O)[C@@H](C)[C@H](O)[C@@H](C)C/C(C)=C\C(C)C(O)[C@@H](C)/C=C\[C@@H](O)C[C@@H]1OC(=O)[C@H](C)C(O)C1C (single isomer, unassigned; (+)) [discodermolide, (+)-Discodermolide]
- Assay [1, 5]: 105.6 % label claim
- Total Impurities [1, 5]: 0.17 % area
- Assay [1, 6]: 105.6 % label claim
- Total Impurities [1, 6]: 0.17 % area
- Assay [1, 7]: 106.4 % label claim
- Total Impurities [1, 7]: 0.21 % area
- Assay [1, 8]: 107.0 % label claim
- Total Impurities [1, 8]: 0.25 % area
- Assay [1, 9]: 104.6 % label claim
- Total Impurities [1, 9]: 0.33 % area
- Assay [1, 10]: 102.3 % label claim
- Total Impurities [1, 10]: 0.23 % area
- Assay [1, 11]: 101.8 % label claim
- Total Impurities [1, 11]: 0.97 % area
- Assay [1, 12]: 102.2 % label claim
- Total Impurities [1, 12]: 1.84 % area
- Assay [1, 13]: 102.0 % label claim
- Total Impurities [1, 13]: 3.35 % area
- Assay [1, 14]: 94.8 % label claim
- Total Impurities [1, 14]: 6.21 % area
- Assay [1, 15]: 103.0 % label claim
- Total Impurities [1, 15]: 0.28 % area
- Assay [1, 16]: 100.0 % label claim
- Total Impurities [1, 16]: 1.49 % area
- Assay [1, 17]: 99.4 % label claim
- Total Impurities [1, 17]: 2.19 % area
- Assay [1, 18]: 98.8 % label claim
- Total Impurities [1, 18]: 3.68 % area
- Assay [1, 19]: 89.9 % label claim
- Total Impurities [1, 19]: 8.90 % area
- Assay [2, 20]: 100.4 % label claim
- Total Impurities [2, 20]: 0.18%
- Assay [2, 21]: 103.2 % label claim
- Total Impurities [2, 21]: 0.16%
- Assay [2, 22]: 102.6 % label claim
- Total Impurities [2, 22]: 0.19%
- Assay [2, 23]: 103.3 % label claim
- Total Impurities [2, 23]: 0.27%
- Assay [2, 24]: 103.8 % label claim
- Total Impurities [2, 24]: 0.29%
- Assay [2, 25]: 102.8 % label claim
- Total Impurities [2, 25]: 0.65%
- Assay [2, 26]: 101.9 % label claim
- Total Impurities [2, 26]: 1.08%
- Assay [2, 27]: 102.5 % label claim
- Total Impurities [2, 27]: 1.18%
- Assay [2, 28]: 102.4 % label claim
- Total Impurities [2, 28]: 1.43%
- Assay [2, 29]: 102.0 % label claim
- Total Impurities [2, 29]: 1.49%
- Assay [2, 30]: 101.6 % label claim
- Total Impurities [2, 30]: 1.91%
- Assay [2, 31]: 99.9 % label claim
- Total Impurities [2, 31]: 0.19%
- Assay [2, 32]: 103.2 % label claim
- Total Impurities [2, 32]: 0.16%
- Assay [2, 33]: 100.5 % label claim
- Total Impurities [2, 33]: 0.18%
- Assay [2, 34]: 102.5 % label claim
- Total Impurities [2, 34]: 0.18%
- Assay [2, 35]: 101.0 % label claim
- Total Impurities [2, 35]: 0.54%
- Assay [2, 36]: 101.1 % label claim
- Total Impurities [2, 36]: 0.55%
- Assay [2, 37]: 99.6 % label claim
- Total Impurities [2, 37]: 0.78%
- Assay [2, 38]: 101.4 % label claim
- Total Impurities [2, 38]: 1.18%
- Assay [2, 39]: 100.9 % label claim
- Total Impurities [2, 39]: 1.48%
- Assay [2, 40]: 100.3 % label claim
- Total Impurities [2, 40]: 1.17%
- Assay [2, 41]: 100.0 % label claim
- Total Impurities [2, 41]: 1.69%
- Assay [2, 42]: 102.7 % label claim
- Total Impurities [2, 42]: 0.19%
- Assay [2, 43]: 101.5 % label claim
- Total Impurities [2, 43]: 0.16%
- Assay [2, 44]: 102.0 % label claim
- Total Impurities [2, 44]: 0.19%
- Assay [2, 45]: 104.1 % label claim
- Total Impurities [2, 45]: 0.17%
- Assay [2, 46]: 104.4 % label claim
- Total Impurities [2, 46]: 0.29%
- Assay [2, 47]: 102.4 % label claim
- Total Impurities [2, 47]: 0.35%
- Assay [2, 48]: 101.3 % label claim
- Total Impurities [2, 48]: 0.52%
- Assay [2, 49]: 103.1 % label claim
- Total Impurities [2, 49]: 0.69%
- Assay [2, 50]: 102.1 % label claim
- Total Impurities [2, 50]: 0.69%
- Assay [2, 51]: 100.9 % label claim
- Total Impurities [2, 51]: 0.58%
- Assay [2, 52]: 101.5 % label claim
- Total Impurities [2, 52]: 0.70%
- Levels of impurities under accelerated conditions ([2]; 25° C./60% RH and 45° C./60% RH): increased
- Change in discodermolide content ([2]; PG infusion concentrates, after 3 months at 5° C.): No significant changes
- Total impurity amounts ([2]; PG infusion concentrates, after 3 months at 5° C., versus proposed specification limit): < 2.0%
- Solubility in aqueous solvents and aqueous-organic mixtures [3]: poor solubility
- Stability in aqueous solvents and aqueous-organic mixtures [3]: poor stability
- Degradation on dilution of infusion concentrate [3, 53]: degrades to the hydrolysis product
- Precipitation on dilution of infusion concentrate [3, 53]: precipitation of the discodermolide is observed
- Solubility in water ([3]; water): practically insoluble
- Assay ([4]; 0-time): 103.9 % label claim
- Total Impurities ([4]; 0-time): 0.59%
- Assay ([4]; 5° C., 4 weeks): 102.2 % label claim
- Total Impurities ([4]; 5° C., 4 weeks): 0.60%
- Assay ([4]; 5° C., 8 weeks): 101.4 % label claim
- Total Impurities ([4]; 5° C., 8 weeks): 0.48%
- Assay ([4]; 5° C., 12 weeks): 100.7 % label claim
- Total Impurities ([4]; 5° C., 12 weeks): 0.49%
- Assay ([4]; 25° C./60% RH, 3 weeks): 100.7 % label claim
- Total Impurities ([4]; 25° C./60% RH, 3 weeks): 0.56%
- Assay ([4]; 25° C./60% RH, 4 weeks): 103.6 % label claim
- Total Impurities ([4]; 25° C./60% RH, 4 weeks): 0.66%
- Assay ([4]; 25° C./60% RH, 8 weeks): 100.5 % label claim
- Total Impurities ([4]; 25° C./60% RH, 8 weeks): 0.68%
- Assay ([4]; 25° C./60% RH, 12 weeks): 100.1 % label claim
- Total Impurities ([4]; 25° C./60% RH, 12 weeks): 0.65%
- Assay ([4]; 50° C./75% RH, 3 weeks): 99.4 % label claim
- Total Impurities ([4]; 50° C./75% RH, 3 weeks): 0.65%
- Assay ([4]; 50° C./75% RH, 4 weeks): 101.6 % label claim
- Total Impurities ([4]; 50° C./75% RH, 4 weeks): 0.65%
- Assay ([4]; 50° C./75% RH, 8 weeks): 99.5 % label claim
- Total Impurities ([4]; 50° C./75% RH, 8 weeks): 0.65%
- Assay ([4]; 50° C./75% RH, 12 weeks): 99.2 % label claim
- Total Impurities ([4]; 50° C./75% RH, 12 weeks): 0.62%
- Degradation profile and long term stability ([4]; 16 mg/mL infusion concentrate in propylene glycol): comparable to 2.0 mg/mL
